Consider 15 compounds from US11299478B2, “2-cyanopyrimidin-4-yl carbamate or urea derivative or salt thereof, and pharmaceutical composition including same” (HANLIM PHARMACEUTICAL CO., LTD., priority 2018, dated 2022).

Some results are limits rather than exact numbers.

Holding throughout (format): biochemical
One test concerns the target cathepsin L (Homo sapiens, UniProt P07711). Description: Inhibitory activity assay against cathepsin L (enzyme assay). The note with it: Z-Phe-Arg-AMC 2 μM, enzyme 3 nM, pH 5.5, 30 minutes. The method in brief: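 IC50s came from 4-parameter logistic fits of ten concentrations (10.0 μM down to 0.000508 μM). Reaction: 30 min, 3 nM enzyme, 2 μM Z-Phe-Arg-AMC, pH 5.5 MES buffer containing DTT, EDTA, Polysorbate 20 and 10% DMSO; fluorescence read 340/460 nm.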

Another test addresses cathepsin S (Homo sapiens, UniProt P25774). Briefly: Inhibitory activity assay against cathepsin S (enzyme assay). The note with it: Z-Phe-Arg-AMC 70 μM, enzyme 3 nM, pH 6.5, 45 minutes. In outline: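 Ten-point compound titration (10.0 to 0.000508 μM final) reacted 45 min with 3 nM cathepsin S and 70 μM Z-Phe-Arg-AMC in MES 50 mM pH 6.5, DTT 2.5 mM, EDTA 1.0 mM, BSA 0.001%, DMSO 10%. AMC release read at 340/460 nm; IC50 from four-parameter logistic fit.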

A further test concerns the target T1, cathepsin K (Homo sapiens, UniProt P43235).
T1 sequence (P43235 115-329): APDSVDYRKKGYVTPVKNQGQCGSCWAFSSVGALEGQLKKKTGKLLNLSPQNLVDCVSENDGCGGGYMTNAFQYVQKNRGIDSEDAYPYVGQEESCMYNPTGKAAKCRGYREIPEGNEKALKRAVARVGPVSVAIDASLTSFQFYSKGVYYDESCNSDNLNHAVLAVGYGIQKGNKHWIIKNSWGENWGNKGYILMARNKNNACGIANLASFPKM
Description: Inhibitory activity assay against cathepsin K (enzyme assay). The note with it: Z-Phe-Arg-AMC 10 μM, enzyme 1 nM, pH 5.5, 30 minutes. The method in brief: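 IC50 by 4-parameter logistic fit of fluorescence (ex 355 nm, em 460 nm) after 30 min reaction. Compound tested at 10 final concentrations from 10.0 μM down to 0.000508 μM against 1 nM enzyme and 10 μM Z-Phe-Arg-AMC, in MES buffer pH 5.5 with DTT, EDTA, Triton X-100 and 10% DMSO.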

The target in another test is cathepsin B (Homo sapiens, UniProt P07858). Description: Inhibitory activity assay against cathepsin B (enzyme assay). The settings on record: Z-Arg-Arg-AMC 40 μM, enzyme 1 nM, pH 6.0, 90 minutes. In outline:
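Reaction run 90 min in MES buffer pH 6.0 containing DTT, EDTA, Polysorbate 20 and 10% DMSO, using 40 μM fluorogenic Z-Arg-Arg-AMC and 1 nM cathepsin B. Ten compound levels from 10.0 μM; AMC fluorescence at ex 340/em 460 nm fitted to a 4-parameter logistic for IC50.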

Sequence of cathepsin L (P07711 114-333, species assumed): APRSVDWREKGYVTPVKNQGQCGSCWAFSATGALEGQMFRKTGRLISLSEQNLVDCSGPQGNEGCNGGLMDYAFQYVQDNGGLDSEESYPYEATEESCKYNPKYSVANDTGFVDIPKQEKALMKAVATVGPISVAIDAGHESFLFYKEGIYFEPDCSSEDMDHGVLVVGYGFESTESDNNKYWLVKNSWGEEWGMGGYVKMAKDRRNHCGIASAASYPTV
Sequence of cathepsin S (P25774 115-331, species assumed): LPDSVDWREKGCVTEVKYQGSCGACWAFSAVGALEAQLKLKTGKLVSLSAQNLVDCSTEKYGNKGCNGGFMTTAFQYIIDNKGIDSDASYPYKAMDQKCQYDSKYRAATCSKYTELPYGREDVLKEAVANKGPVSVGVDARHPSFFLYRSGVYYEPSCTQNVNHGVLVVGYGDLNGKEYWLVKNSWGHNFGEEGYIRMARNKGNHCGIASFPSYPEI

A word on the IC50: it is the midpoint of a concentration-inhibition curve. In the case of `N#Cc1nccc(C2(NC(=O)Nc3ccc(-c4ccccc4C(F)(F)F)c(C(F)(F)F)c3)CCCCC2)n1` [Example 176, 1-(2,2′-bis(trifluoromethyl)-[1,1′-biphenyl]-4-yl)-3-(1-(2-cyanopyrimidin-4-yl)cyclohexyl)urea], the 50% inhibitory concentration (IC50) against cathepsin L was above 10000 nM; at cathepsin S, 5840 nM; at cathepsin K it was 122 nM; against cathepsin B it was above 10000 nM.
As for `N#Cc1nccc(C2(NC(=O)Nc3ccc(-c4ccc(S(=O)(=O)C(F)(F)F)cc4)c(C(F)(F)F)c3)CCCCC2)n1` [Example 177, 1-(1-(2-cyanopyrimidin-4-yl)cyclohexyl)-3-(2-(trifluoromethyl)-4′-((trifluoromethyl)sulfonyl)-[1,1′-biphenyl]-4-yl)urea], the half-inhibitory concentration (IC50) is above 10000 nM against cathepsin L, 6140 nM against cathepsin S, 205 nM on cathepsin K and above 10000 nM at cathepsin B.
Consider `CS(=O)(=O)c1ccc(-c2ccc(NC(=O)NC3(c4ccnc(C#N)n4)CCCCC3)cc2C(F)(F)F)cc1C(F)(F)F` [Example 178, 1-(1-(2-cyanopyrimidin-4-yl)cyclohexyl)-3-(4′-(methylsulfonyl)-2,3′-bis(trifluoromethyl)-[1,1′-biphenyl]-4-yl)urea], for which the concentration for half-maximal inhibition (IC50) was above 10000 nM against cathepsin L, 5600 nM on cathepsin S, 21.2 nM on cathepsin K and above 10000 nM at cathepsin B.
`N#Cc1nccc(C2(NC(=O)Nc3ccc(-c4ccc(S(N)(=O)=O)cc4)c(C(F)(F)F)c3)CCCCC2)n1` [Example 179, 4′-(3-(1-(2-cyanopyrimidin-4-yl)cyclohexyl)ureido)-2′-(trifluoromethyl)-[1,1′-biphenyl]-4-sulfonamide]: the IC50 is 7530 nM on cathepsin L, 2760 nM against cathepsin S, 11.5 nM at cathepsin K and above 10000 nM against cathepsin B.
Taken in the same sequence, the figures for `CS(=O)(=O)Nc1ccc(-c2ccc(NC(=O)NC3(c4ccnc(C#N)n4)CCCCC3)cc2C(F)(F)F)cc1` [Example 180, N-(4′-(3-(1-(2-cyanopyrimidin-4-yl)cyclohexyl)ureido)-2′-(trifluoromethyl)-[1,1′-biphenyl]-4-yl)methanesulfonamide] were above 10000 nM, above 10000 nM, 10.9 nM and above 10000 nM.
Turning to `CC(C)N1CCN(c2ccc(-c3ccc(CNC(=O)NC4(c5ccnc(C#N)n5)CCCCC4)cc3)cc2)CC1` [Example 181, 1-(1-(2-cyanopyrimidin-4-yl)cyclohexyl)-3-((4′-(4-isopropylpiperazin-1-yl)-[1,1′-biphenyl]-4-yl)methyl)urea], the half-inhibitory concentration (IC50) against cathepsin L was above 10000 nM; against cathepsin S it was above 10000 nM; at cathepsin K, 1.9 nM; against cathepsin B it was above 10000 nM.
For the compound `N#Cc1nccc(C2(NC(=O)Nc3ccc(C#CCCC(=O)O)cc3)CCCCC2)n1` [Example 182, 5-(4-(3-(1-(2-cyanopyrimidin-4-yl)cyclohexyl)ureido)phenyl)pent-4-ynoic acid], the IC50 is above 10000 nM against cathepsin L, above 10000 nM against cathepsin S, 10.5 nM at cathepsin K and above 10000 nM on cathepsin B.
`N#Cc1nccc(C2(NC(=O)Nc3ccc(C#Cc4ccc(CO)cc4)cc3)CCCCC2)n1` [Example 183, 1-(1-(2-cyanopyrimidin-4-yl)cyclohexyl)-3-(4-((4-(hydroxymethyl)phenyl)ethynyl)phenyl)urea]: the concentration for half-maximal inhibition (IC50) at cathepsin L was above 10000 nM; at cathepsin S, above 10000 nM; on cathepsin K, 22 nM; on cathepsin B, above 10000 nM.
With `N#Cc1nccc(C2(NC(=O)Nc3ccc(-c4ccc(C(=O)NCCc5c[nH]cn5)cc4)cc3)CCCCC2)n1` [Example 184, N-(2-(1H-imidazol-4-yl)ethyl)-4′-(3-(1-(2-cyanopyrimidin-4-yl)cyclohexyl)ureido)-[1,1′-biphenyl]-4-carboxamide], the 50% inhibitory concentration (IC50) is 2420 nM against cathepsin L, 8050 nM against cathepsin S, 0.2 nM at cathepsin K and 2150 nM against cathepsin B.
With `N#Cc1nccc(C2(NC(=O)Nc3ccc(-c4ccc(C(=O)NCCn5ccnc5)cc4)cc3)CCCCC2)n1` [Example 185, N-(2-(1H-imidazol-1-yl)ethyl)-4′-(3-(1-(2-cyanopyrimidin-4-yl)cyclohexyl)ureido)-[1,1′-biphenyl]-4-carboxamide], the IC50 is 4400 nM against cathepsin L, above 10000 nM against cathepsin S, 0.1 nM on cathepsin K and 1760 nM on cathepsin B.
`N#Cc1nccc(C2(NC(=O)Nc3ccc(-c4ccc(C(=O)NCCn5ccnc5)cc4)c(F)c3)CCCCC2)n1` [Example 186, N-(2-(1H-imidazol-1-yl)ethyl)-4′-(3-(1-(2-cyanopyrimidin-4-yl)cyclohexyl)ureido)-2′-fluoro-[1,1′-biphenyl]-4-carboxamide]: the concentration for half-maximal inhibition (IC50) against cathepsin L was 2020 nM; against cathepsin S, above 10000 nM; on cathepsin K, 0.1 nM; against cathepsin B, 2740 nM.
On to `N#Cc1nccc(C2(NC(=O)Nc3ccc(-c4ccc(C(=O)NCCn5nccn5)cc4)c(F)c3)CCCCC2)n1` [Example 188, N-(2-(2H-1,2,3-triazol-2-yl)ethyl)-4′-(3-(1-(2-cyanopyrimidin-4-yl)cyclohexyl)ureido)-2′-fluoro-[1,1′-biphenyl]-4-carboxamide], for which the IC50 at cathepsin L was above 10000 nM; against cathepsin S, 4330 nM; at cathepsin K, 16.1 nM; on cathepsin B it was above 10000 nM.
In the case of `N#Cc1nccc(C2(NC(=O)Nc3ccc(-c4ccc(C(=O)NCCc5c[nH]cn5)cc4)c(C(F)(F)F)c3)CCCCC2)n1` [Example 189, N-(2-(1H-imidazol-4-yl)ethyl)-4′-(3-(1-(2-cyanopyrimidin-4-yl)cyclohexyl)ureido)-2′-(trifluoromethyl)-[1,1′-biphenyl]-4-carboxamide], the IC50 was 1190 nM at cathepsin L, above 10000 nM against cathepsin S, 0.6 nM on cathepsin K and 5400 nM against cathepsin B.
Taken in the same sequence, the figures for `N#Cc1nccc(C2(NC(=O)Nc3ccc(-c4ccc(OCCN)cc4)cc3)CCCCC2)n1` [Example 190, 1-(4′-(2-aminoethoxy)-[1,1′-biphenyl]-4-yl)-3-(1-(2-cyanopyrimidin-4-yl)cyclohexyl)urea] were above 10000 nM, above 10000 nM, 0.3 nM and 7870 nM.
`CNCCOc1ccc(-c2ccc(NC(=O)NC3(c4ccnc(C#N)n4)CCCCC3)cc2)cc1` [Example 191, 1-(1-(2-cyanopyrimidin-4-yl)cyclohexyl)-3-(4′-(2-(methylamino)ethoxy)-[1,1′-biphenyl]-4-yl)urea]: the IC50 against cathepsin L was above 10000 nM; at cathepsin S it was above 10000 nM; on cathepsin K it was 0.1 nM; on cathepsin B, 4760 nM.
